# Assay results from the NIST ThermoML archive (doi:10.1021/je060271a).
# Numbers after ± are expanded uncertainties.
# Conditions: 283.15 K, Liquid, Vibrating tube method
compound,measurement,setting,value
CCCCCC(=O)OCC(COC(=O)CCCCC)(COC(=O)CCCCC)COC(=O)CCCCC [pentaerythritol tetrahexanoate],mass density,12947 kPa,1011.7 ± 1.2 kg/m3
same,mass density,12961 kPa,1011.5 ± 1.2 kg/m3
same,mass density,12978 kPa,1011.5 ± 1.2 kg/m3
same,mass density,12991 kPa,1011.6 ± 1.2 kg/m3
same,mass density,13005 kPa,1011.6 ± 1.2 kg/m3
same,mass density,13019 kPa,1011.6 ± 1.2 kg/m3
same,mass density,13036 kPa,1011.6 ± 1.2 kg/m3
same,mass density,13050 kPa,1011.7 ± 1.2 kg/m3
same,mass density,13064 kPa,1011.4 ± 1.2 kg/m3
same,mass density,13081 kPa,1011.6 ± 1.2 kg/m3
same,mass density,13095 kPa,1011.5 ± 1.2 kg/m3
same,mass density,13109 kPa,1011.6 ± 1.2 kg/m3
same,mass density,13126 kPa,1011.7 ± 1.2 kg/m3
same,mass density,13139 kPa,1011.7 ± 1.2 kg/m3
same,mass density,13156 kPa,1011.7 ± 1.2 kg/m3
same,mass density,13170 kPa,1011.7 ± 1.2 kg/m3
same,mass density,13185 kPa,1011.7 ± 1.2 kg/m3
same,mass density,13202 kPa,1011.8 ± 1.2 kg/m3
same,mass density,13216 kPa,1011.7 ± 1.2 kg/m3
same,mass density,13233 kPa,1011.7 ± 1.2 kg/m3
same,mass density,13247 kPa,1011.7 ± 1.2 kg/m3
same,mass density,13262 kPa,1011.8 ± 1.2 kg/m3
same,mass density,13276 kPa,1011.9 ± 1.2 kg/m3
same,mass density,13293 kPa,1011.7 ± 1.2 kg/m3
same,mass density,13308 kPa,1011.8 ± 1.2 kg/m3
same,mass density,13322 kPa,1011.7 ± 1.2 kg/m3
same,mass density,13340 kPa,1011.8 ± 1.2 kg/m3
same,mass density,13355 kPa,1011.8 ± 1.2 kg/m3
same,mass density,13372 kPa,1011.8 ± 1.2 kg/m3
same,mass density,13386 kPa,1011.9 ± 1.2 kg/m3
same,mass density,13401 kPa,1011.8 ± 1.2 kg/m3
same,mass density,13419 kPa,1012 ± 1.2 kg/m3
same,mass density,13434 kPa,1011.8 ± 1.2 kg/m3
same,mass density,13448 kPa,1011.8 ± 1.2 kg/m3
same,mass density,13466 kPa,1011.8 ± 1.2 kg/m3
same,mass density,13481 kPa,1012 ± 1.2 kg/m3
same,mass density,13496 kPa,1011.9 ± 1.2 kg/m3
same,mass density,13514 kPa,1011.8 ± 1.2 kg/m3
same,mass density,13529 kPa,1011.9 ± 1.2 kg/m3
same,mass density,13544 kPa,1012 ± 1.2 kg/m3
same,mass density,13559 kPa,1012 ± 1.2 kg/m3
same,mass density,13577 kPa,1011.9 ± 1.2 kg/m3
same,mass density,13592 kPa,1011.9 ± 1.2 kg/m3
same,mass density,13607 kPa,1011.9 ± 1.2 kg/m3
same,mass density,13625 kPa,1011.8 ± 1.2 kg/m3
same,mass density,13640 kPa,1012 ± 1.2 kg/m3
same,mass density,13655 kPa,1012.1 ± 1.2 kg/m3
same,mass density,13669 kPa,1012 ± 1.2 kg/m3
same,mass density,13687 kPa,1012.1 ± 1.2 kg/m3
same,mass density,13702 kPa,1012 ± 1.2 kg/m3
same,mass density,13716 kPa,1011.8 ± 1.2 kg/m3
same,mass density,13735 kPa,1012 ± 1.2 kg/m3
same,mass density,13750 kPa,1011.9 ± 1.2 kg/m3
same,mass density,13765 kPa,1011.9 ± 1.2 kg/m3
same,mass density,13782 kPa,1012.1 ± 1.2 kg/m3
same,mass density,13797 kPa,1012.1 ± 1.2 kg/m3
same,mass density,13810 kPa,1012.1 ± 1.2 kg/m3
same,mass density,13827 kPa,1012.1 ± 1.2 kg/m3
same,mass density,13842 kPa,1011.9 ± 1.2 kg/m3
same,mass density,13855 kPa,1012 ± 1.2 kg/m3
same,mass density,13870 kPa,1012.1 ± 1.2 kg/m3
same,mass density,13883 kPa,1012.1 ± 1.2 kg/m3
same,mass density,13894 kPa,1012.1 ± 1.2 kg/m3
same,mass density,13906 kPa,1012 ± 1.2 kg/m3
same,mass density,13920 kPa,1012.1 ± 1.2 kg/m3
same,mass density,13934 kPa,1012.3 ± 1.2 kg/m3
same,mass density,13949 kPa,1012.2 ± 1.2 kg/m3
same,mass density,13966 kPa,1012.1 ± 1.2 kg/m3
same,mass density,13981 kPa,1012.1 ± 1.2 kg/m3
same,mass density,13996 kPa,1012.2 ± 1.2 kg/m3
same,mass density,14013 kPa,1012.1 ± 1.2 kg/m3
same,mass density,14027 kPa,1012.2 ± 1.2 kg/m3
